± gives the expanded uncertainty stated by the source.
Columns and labels:
[1] = Crystal; DTA
[2] = Molar enthalpy of transition or fusion; settings: Crystal; DSC

For `O=C(O)c1ccc(C(=O)O)o1` [2,5-furandicarboxylic acid], the Normal melting temperature [1] was 341.30 ± 0.7 °C and the “Molar enthalpy of transition or fusion” value [2] was 13.2 ± 0.837 kcal/mol.
